Reference: ChEMBL document CHEMBL4732126, “Design, synthesis, and biodistribution studies of new analogues of marine alkaloids: Potent in vitro and in vivo fungicidal agents against Candida spp” (Eur J Med Chem, 2021)
Values after ≈ are worked out from the molar mass of the structure shown.

Assays:
Assay type in all cases: functional
Candida albicans [1] = experiment: Antifungal activity against Candida albicans ATCC 10231 assessed as reduction in fungal growth incubated for 48 hrs by broth microdilution method
Nakaseomyces glabratus [2] = experiment: Antifungal activity against Candida glabrata ATCC 2001 assessed as reduction in fungal growth incubated for 48 hrs by broth microdilution method
Pichia kudriavzevii [3] = experiment: Antifungal activity against Candida krusei ATCC 34135 assessed as reduction in fungal growth incubated for 48 hrs by broth microdilution method
Candida tropicalis [4] = experiment: Antifungal activity against Candida tropicalis ATCC 28707 assessed as reduction in fungal growth incubated for 48 hrs by broth microdilution method
Candida albicans [5] = experiment: Antifungal activity against Candida albicans ATCC 10231 assessed as reduction in fungal growth incubated for 48 hrs in presence of sorbitol by broth microdilution method
Nakaseomyces glabratus [6] = experiment: Antifungal activity against Candida glabrata ATCC 2001 assessed as reduction in fungal growth incubated for 48 hrs in presence of sorbitol by broth microdilution method
Pichia kudriavzevii [7] = experiment: Antifungal activity against Candida krusei ATCC 34135 assessed as reduction in fungal growth incubated for 48 hrs in presence of sorbitol by broth microdilution method
Candida tropicalis [8] = experiment: Antifungal activity against Candida tropicalis ATCC 28707 assessed as reduction in fungal growth incubated for 48 hrs in presence of sorbitol by broth microdilution method
Candida albicans [9] = experiment: Antifungal activity against Candida albicans ATCC 18804 assessed as reduction in fungal growth incubated for 48 hrs by broth microdilution method
Candida albicans [10] = experiment: Antifungal activity against Candida albicans isolate 6 assessed as reduction in fungal growth incubated for 48 hrs by broth microdilution method
Candida albicans [11] = experiment: Antifungal activity against Candida albicans isolate 7 assessed as reduction in fungal growth incubated for 48 hrs by broth microdilution method
Candida albicans [12] = experiment: Antifungal activity against Candida albicans isolate 8 assessed as reduction in fungal growth incubated for 48 hrs by broth microdilution method
Candida albicans [13] = experiment: Antifungal activity against Candida albicans isolate 9 assessed as reduction in fungal growth incubated for 48 hrs by broth microdilution method
Candida albicans [14] = experiment: Antifungal activity against Candida albicans isolate 10 assessed as reduction in fungal growth incubated for 48 hrs by broth microdilution method
Candida albicans [15] = experiment: Antifungal activity against Candida albicans isolate 11 assessed as reduction in fungal growth incubated for 48 hrs by broth microdilution method
Candida albicans [16] = experiment: Antifungal activity against Candida albicans isolate 12 assessed as reduction in fungal growth incubated for 48 hrs by broth microdilution method
Candida albicans [17] = experiment: Antifungal activity against Candida albicans isolate 13 assessed as reduction in fungal growth incubated for 48 hrs by broth microdilution method
Candida albicans [18] = experiment: Fungicidal activity against Candida albicans ATCC 18804 assessed as fungal killing incubated for 48 hrs followed by plating on SD agar plate
Candida albicans [19] = experiment: Fungicidal activity against Candida albicans ATCC 10231 assessed as fungal killing incubated for 48 hrs followed by plating on SD agar plate
Nakaseomyces glabratus [20] = experiment: Fungicidal activity against Candida glabrata ATCC 2001 assessed as fungal killing incubated for 48 hrs followed by plating on SD agar plate
Pichia kudriavzevii [21] = experiment: Fungicidal activity against Candida krusei ATCC 34135 assessed as fungal killing incubated for 48 hrs followed by plating on SD agar plate
Candida tropicalis [22] = experiment: Fungicidal activity against Candida tropicalis ATCC 28707 assessed as fungal killing incubated for 48 hrs followed by plating on SD agar plate
Candida albicans [23] = experiment: Fungicidal activity against Candida albicans isolate 6 assessed as fungal killing incubated for 48 hrs followed by plating on SD agar plate
Candida albicans [24] = experiment: Fungicidal activity against Candida albicans isolate 7 assessed as fungal killing incubated for 48 hrs followed by plating on SD agar plate
Candida albicans [25] = experiment: Fungicidal activity against Candida albicans isolate 8 assessed as fungal killing incubated for 48 hrs followed by plating on SD agar plate
Candida albicans [26] = experiment: Fungicidal activity against Candida albicans isolate 9 assessed as fungal killing incubated for 48 hrs followed by plating on SD agar plate
Candida albicans [27] = experiment: Fungicidal activity against Candida albicans isolate 10 assessed as fungal killing incubated for 48 hrs followed by plating on SD agar plate
Candida albicans [28] = experiment: Fungicidal activity against Candida albicans isolate 11 assessed as fungal killing incubated for 48 hrs followed by plating on SD agar plate
Candida albicans [29] = experiment: Fungicidal activity against Candida albicans isolate 12 assessed as fungal killing incubated for 48 hrs followed by plating on SD agar plate
Candida albicans [30] = experiment: Fungicidal activity against Candida albicans isolate 13 assessed as fungal killing incubated for 48 hrs followed by plating on SD agar plate
Candida albicans [31] = experiment: Antifungal activity against Candida albicans ATCC 10231 assessed as reduction in fungal growth incubated for 48 hrs in presence of ergosterol by broth microdilution method
Nakaseomyces glabratus [32] = experiment: Antifungal activity against Candida glabrata ATCC 2001 assessed as reduction in fungal growth incubated for 48 hrs in presence of ergosterol by broth microdilution method
Pichia kudriavzevii [33] = experiment: Antifungal activity against Candida krusei ATCC 34135 assessed as reduction in fungal growth incubated for 48 hrs in presence of ergosterol by broth microdilution method
Candida tropicalis [34] = experiment: Antifungal activity against Candida tropicalis ATCC 28707 assessed as reduction in fungal growth incubated for 48 hrs in presence of ergosterol by broth microdilution method
Candida albicans [35] = experiment: Antibiofilm activity against Candida albicans ATCC 10231 assessed as reduction in mature biofilm at 125 ug/ml incubated for 48 hrs by crystal violet staining based spectrophotometric analysis relative to control; details: dose 125.0 µg/ml

Compound	MIC (Candida albicans [1]) [µg/mL]	MIC (Nakaseomyces glabratus [2]) [µg/mL]	MIC (Pichia kudriavzevii [3]) [µg/mL]	MIC (Candida tropicalis [4]) [µg/mL]	MIC (Candida albicans [9]) [µg/mL]	MIC (Candida albicans [10]) [µg/mL]	MIC (Candida albicans [11]) [µg/mL]	MIC (Candida albicans [12]) [µg/mL]	MIC (Candida albicans [13]) [µg/mL]	MIC (Candida albicans [14]) [µg/mL]	MIC (Candida albicans [15]) [µg/mL]	MIC (Candida albicans [16]) [µg/mL]	MIC (Candida albicans [17]) [µg/mL]	also measured
CC[C@H](C)C[C@H](C)CCCCCCCCC(=O)N[C@H]1C[C@@H](O)[C@@H](NCCN)NC(=O)[C@@H]2[C@@H](O)CCN2C(=O)[C@H]([C@H](O)CCN)NC(=O)[C@H]([C@H](O)[C@@H](O)c2ccc(O)cc2)NC(=O)[C@@H]2C[C@@H](O)CN2C(=O)[C@H]([C@@H](C)O)NC1=O [CASPOFUNGIN]	4 (≈ 3.66 µM)	0.5 (≈ 0.457 µM)	0.0625 (≈ 0.0572 µM)	0.0625 (≈ 0.0572 µM)	–	–	–	–	–	–	–	–	–	MIC (Candida albicans [5]): 15.6 µg/mL; MIC (Nakaseomyces glabratus [6]): 1 µg/mL; MIC (Pichia kudriavzevii [7]): 0.25 µg/mL; MIC (Candida tropicalis [8]): 0.25 µg/mL
NYSTATIN	4	4	8	2	4	4	4	4	4	4	4	2	2	MFC99.9 (Candida albicans [18]): 4 µg/mL; MFC99.9 (Candida albicans [19]): 4 µg/mL; MFC99.9 (Nakaseomyces glabratus [20]): 4 µg/mL; MFC99.9 (Pichia kudriavzevii [21]): 8 µg/mL; MFC99.9 (Candida tropicalis [22]): 2 µg/mL; MFC99.9 (Candida albicans [23]): 4 µg/mL; MFC99.9 (Candida albicans [24]): 4 µg/mL; MFC99.9 (Candida albicans [25]): 4 µg/mL; MFC99.9 (Candida albicans [26]): 4 µg/mL; MFC99.9 (Candida albicans [27]): 4 µg/mL; MFC99.9 (Candida albicans [28]): 4 µg/mL; MFC99.9 (Candida albicans [29]): 4 µg/mL; MFC99.9 (Candida albicans [30]): 2 µg/mL; MIC (Candida albicans [31]): 31.2 µg/mL; MIC (Nakaseomyces glabratus [32]): 31.2 µg/mL; MIC (Pichia kudriavzevii [33]): 31.2 µg/mL; MIC (Candida tropicalis [34]): 3.9 µg/mL; inhibition (Candida albicans [35]): 25%
[N-]=[N+]=NCCCCCCCCCCCCOCCCc1cccnc1	> 500	> 500	> 500	40 (≈ 115 µM)	> 500	> 500	> 500	> 500	> 500	> 500	> 500	> 500	> 500	MFC (Candida tropicalis [22]; read-out: MFC99.9): 160 µg/mL (≈ 462 µM)
